This note sets out measurements from ChEMBL document CHEMBL3860035, “Isolation and Structure Elucidation of Cytotoxic Saccharothriolides D to F from a Rare Actinomycete Saccharothrix sp. and Their Structure-Activity Relationship” (J Nat Prod, 2016).

The nature of assay [1]: Cytotoxicity against human HT1080 cells assessed as reduction cell viability after 72 hrs by WST8-based colorimetric analysis. Format: functional. To be noted: HT-1080, 72 h. A general note: Formazan colour is commonly taken as a measure of viable cells.
Assay [2] is described as follows: Cytotoxicity against human HT1080 cells. The class given is functional, cell-based. The conditions noted are these: HT-1080.

As a reminder, the IC50 is the concentration that inhibits the measured activity by half.

Counter-ions that a name gives are not always drawn.

`COc1cccc2c1C(=O)c1c(O)c3c(c(O)c1C2=O)C[C@@](O)(C(=O)CO)C[C@@H]3O[C@H]1C[C@H](N)[C@H](O)[C@H](C)O1` [DOXORUBICIN HYDROCHLORIDE]: the IC50 in assay [1] came out at 0.38 µM.

For the molecule `C[C@@H]1[C@@H](Nc2ccccc2C(=O)O)[C@@H](C)C(=O)[C@@H](C)[C@@H](O)CC(=O)O[C@@H]1c1cc(O)cc(O)c1`, the concentration for half-maximal inhibition (IC50) in assay [1] was found to be 66.4 µM.

The molecule `C[C@@H]1[C@@H](Nc2ccccc2O)[C@@H](C)C(=O)[C@@H](C)[C@@H](O)[C@@H](C)C(=O)O[C@@H]1c1cc(O)cc(O)c1` came in with a half-maximal inhibitory concentration (IC50) in assay [2] of 13.9 µM.

Take `C[C@@H]1[C@@H](Nc2ccccc2O)[C@@H](C)C(=O)[C@@H](C)[C@@H](O)[C@H](C)C(=O)O[C@@H]1c1cc(O)cc(O)c1`: the IC50 in assay [1] was 29.2 µM.
